Paper PMC11748363, “Antimicrobial and Antiproliferative Properties of 2‐Phenyl‐N‐(Pyridin‐2‐yl)acetamides” (Chemical Biology & Drug Design, 2025)
Converted amounts (≈) assume the structure as drawn. Read-outs that look alike come from different tables or passages of the source.

Columns and labels:
[1] = tested on: Mycobacterium tuberculosis H37Ra; design: method as in Nawrot et al. 2021; details: previously published N‐pyridinyl benzamides; ref Nawrot et al. 2021; cited from earlier work
[2] = tested on: Mycobacterium tuberculosis H37Ra; experiment: Antimycobacterial microdilution broth MIC (resazurin), Mtb H37Ra; format: cell-based; details: for MIC: Mycobacterium tuberculosis, H37RA, read-out: MIC Mtb H37Ra; for SI (selectivity index): SI = HepG2 IC50 (μM)/MIC MtbH37Ra (μM), calculated for compounds with MIC ≤ 31.25 μg/mL
[3] = tested on: Mycolicibacterium smegmatis DSM 43465; experiment: Antimycobacterial microdilution broth MIC (resazurin), M. smegmatis; format: cell-based; details: DSM43465, read-out: MIC M. smegmatis
[4] = tested on: Mycolicibacterium aurum DSM 43999; experiment: Antimycobacterial microdilution broth MIC (resazurin), M. aurum; format: cell-based; details: DSM43999, read-out: MIC M. aurum
[5] = tested on: Mycobacterium tuberculosis H37Rv; experiment: Microplate Alamar Blue Assay MIC, Mtb H37Rv; format: cell-based
[6] = tested on: M. kansasii CNCTC My 235/80; experiment: Microplate Alamar Blue Assay MIC, M. kansasii; format: cell-based
[7] = tested on: M. avium ssp. avium CNCTC My 80/72; experiment: Microplate Alamar Blue Assay MIC, M. avium; format: cell-based
HepG2 cell line = experiment: Cytotoxicity CellTiter 96, HepG2; format: cell-based, human; details: Homo sapiens, HepG2, 24 h, 24 h incubation; ^c compound precipitated in the testing medium; ^d over the limit of tested concentrations
[8] = tested on: Staphylococcus aureus CCM 4223, ATCC 29213; experiment: Antibacterial microdilution broth MIC, SA; format: cell-based; details: for MIC: Staphylococcus aureus
[9] = tested on: Staphylococcus aureus subsp. aureus CCM 4750, ATCC 43300 (MRSA); experiment: Antibacterial microdilution broth MIC, MRSA; format: cell-based; details: for MIC: Staphylococcus aureus
[10] = tested on: Staphylococcus epidermidis CCM 4418, ATCC 12228; experiment: Antibacterial microdilution broth MIC, SE; format: cell-based
[11] = tested on: Enterococcus faecalis CCM 4224, ATCC 29212; experiment: Antibacterial microdilution broth MIC, EF; format: cell-based
[12] = tested on: Escherichia coli CCM 3954, ATCC 25922; experiment: Antibacterial microdilution broth MIC, EC; format: cell-based
[13] = tested on: Acinetobacter baumannii DSM 30007, ATCC 19606; experiment: Antibacterial microdilution broth MIC, ACI; format: cell-based
[14] = tested on: Pseudomonas aeruginosa CCM 3955, ATCC 27853; experiment: Antibacterial microdilution broth MIC, PA; format: cell-based
[15] = tested on: Candida albicans CCM 8320, ATCC 24433; experiment: Antifungal microdilution broth MIC, CA
[16] = tested on: Candida krusei CCM 8271, ATCC 6258; experiment: Antifungal microdilution broth MIC, CK; details: Pichia kudriavzevii
[17] = tested on: Candida parapsilosis CCM 8260, ATCC 22019; experiment: Antifungal microdilution broth MIC, CP; details: Lodderomyces parapsilosis
[18] = tested on: Candida tropicalis CCM 8264, ATCC 750; experiment: Antifungal microdilution broth MIC, CT
[19] = tested on: Aspergillus fumigatus ATCC 204305; experiment: Antifungal microdilution broth MIC, AF
[20] = tested on: Lichtheimia corymbifera CCM 8077; experiment: Antifungal microdilution broth MIC, LC
[21] = tested on: Trichophyton interdigitale CCM 8377, ATCC 9533; experiment: Antifungal microdilution broth MIC, TI; details: for MIC: Trichophyton interdigitale
[22] = tested on: Aspergillus flavus CCM 8363; experiment: Antifungal microdilution broth MIC, AFla
[23] = tested on: Klebsiella pneumoniae CCM 4415, ATCC 10031; experiment: Antibacterial microdilution broth MIC, KP
[24] = ATCC204305, 24 h, read-out: MIC AF 24h
[25] = ATCC204305, 48 h, read-out: MIC AF 48h
[26] = CCM8077, 24 h, read-out: MIC LC 24h
[27] = CCM8077, 48 h, read-out: MIC LC 48h
[28] = CCM8363, 24 h, read-out: MIC AFla 24h
[29] = CCM8363, 48 h, read-out: MIC AFla 48h

## O=C(Nc1cccc(Cl)n1)c1ccc(Cl)cc1 [C00003 R1=6-Cl,R2=4-Cl]
[1]
  MIC Mtb H37Ra (μg/mL), previously published compounds: > 500 µg/mL

## COc1ccc(C(=O)Nc2cccc(Cl)n2)cc1 [C00003 R1=6-Cl,R2=4-OMe]
[1]
  MIC Mtb H37Ra (μg/mL), previously published compounds: 15.625 µg/mL (≈ 59.5 µM)

## O=C(Nc1cccc(Cl)n1)c1ccccc1 [C00003 R1=6-Cl,R2=H]
[1]
  MIC Mtb H37Ra (μg/mL), previously published compounds: 125 µg/mL (≈ 537 µM)

## O=C(Nc1ccccn1)c1ccccc1Cl [C00003 R1=H,R2=2-Cl]
[1]
  MIC Mtb H37Ra (μg/mL), previously published compounds: > 500 µg/mL

## COc1ccccc1C(=O)Nc1ccccn1 [C00003 R1=H,R2=2-OMe]
[1]
  MIC Mtb H37Ra (μg/mL), previously published compounds: 31.25 µg/mL (≈ 137 µM)

## O=C(Nc1ccccn1)c1cccc(C(F)(F)F)c1 [C00003 R1=H,R2=3-CF3]
[1]
  MIC Mtb H37Ra (μg/mL), previously published compounds: 31.25 µg/mL (≈ 117 µM)

## O=C(Nc1ccccn1)c1cccc(Cl)c1 [C00003 R1=H,R2=3-Cl]
[1]
  MIC Mtb H37Ra (μg/mL), previously published compounds: 62.5 µg/mL (≈ 269 µM)

## COc1cccc(C(=O)Nc2ccccn2)c1 [C00003 R1=H,R2=3-OMe]
[1]
  MIC Mtb H37Ra (μg/mL), previously published compounds: 62.5 µg/mL (≈ 274 µM)

## O=C(Nc1ccccn1)c1ccc(Cl)cc1 [C00003 R1=H,R2=4-Cl]
[1]
  MIC Mtb H37Ra (μg/mL), previously published compounds: 62.5 µg/mL (≈ 269 µM)

## COc1ccc(C(=O)Nc2ccccn2)cc1 [C00003 R1=H,R2=4-OMe]
[1]
  MIC Mtb H37Ra (μg/mL), previously published compounds: 62.5 µg/mL (≈ 274 µM)

## O=C(Nc1ccccn1)c1ccccc1 [C00003 R1=H,R2=H]
[1]
  MIC Mtb H37Ra (μg/mL), previously published compounds: 250 µg/mL (≈ 1260 µM)

## O=C(Cc1ccc(Cl)cc1)Nc1cccc(Cl)n1 [Compound 21]
[2]; Calculated from MIC (μg/mL)
  MIC: 27.8 µM
[2]
  MIC: 7.81 µg/mL
  SI (selectivity index): 2.9
[3]
  MIC: 15.6 µg/mL (≈ 55.6 µM)
[4]
  MIC: 31.2 µg/mL (≈ 111 µM)
[5]; Mycobacterium tuberculosis, H37RV
  MIC: 6.25 µg/mL (≈ 22.2 µM)
[6]
  MIC M. kansasii: additional activity
[6]; Mycobacterium kansasii
  MIC: 25 µg/mL (≈ 88.9 µM)
[7]
  MIC M. avium: additional activity
[7]; Mycobacterium avium
  MIC: 6.25 µg/mL (≈ 22.2 µM)
HepG2 cell line
  IC50: 81.5 µM
[8]; 24 h, read-out: MIC SA 24h
  MIC: 250 µM (≈ 70.3 µg/mL)
[8]; 48 h, read-out: MIC SA 48h
  MIC: > 500 µM
[8]; Table 2
  Antibacterial activity on SA: 250 μM on SA, 250 μM on MRSA
[9]; 24 h, read-out: MIC MRSA 24h
  MIC: 250 µM (≈ 70.3 µg/mL)
[9]; 48 h, read-out: MIC MRSA 48h
  MIC: 500 µM (≈ 141 µg/mL)
[9]; Table 2
  Antibacterial activity on MRSA: 250 μM on SA, 250 μM on MRSA
[10]; 24 h, read-out: MIC SE 24h
  MIC: > 500 µM
[10]; 48 h, read-out: MIC SE 48h
  MIC: > 500 µM
[11]; 24 h, read-out: MIC EF 24h
  MIC: > 500 µM
[11]; 48 h, read-out: MIC EF 48h
  MIC: > 500 µM
[12]; 24 h, read-out: MIC EC 24h
  MIC: > 500 µM
[12]; 48 h, read-out: MIC EC 48h
  MIC: > 500 µM
[13]; 24 h, read-out: MIC ACI 24h
  MIC: > 500 µM
[13]; 48 h, read-out: MIC ACI 48h
  MIC: > 500 µM
[14]; 24 h, read-out: MIC PA 24h
  MIC: > 500 µM
[14]; 48 h, read-out: MIC PA 48h
  MIC: > 500 µM
[15]; 24 h, read-out: MIC CA 24h
  MIC: > 500 µM
[15]; 48 h, read-out: MIC CA 48h
  MIC: > 500 µM
[16]; 24 h, read-out: MIC CK 24h
  MIC: > 500 µM
[16]; 48 h, read-out: MIC CK 48h
  MIC: > 500 µM
[17]; 24 h, read-out: MIC CP 24h
  MIC: > 500 µM
[17]; 48 h, read-out: MIC CP 48h
  MIC: > 500 µM
[18]; 24 h, read-out: MIC CT 24h
  MIC: > 500 µM
[18]; 48 h, read-out: MIC CT 48h
  MIC: > 500 µM
[19]; [24]
  MIC: > 500 µM
[19]; [25]
  MIC: > 500 µM
[20]; [26]
  MIC: > 500 µM
[20]; [27]
  MIC: > 500 µM
[21]; Table 2
  Antifungal activity on TI: 62.5 μM on TI
[21]; 72 h, read-out: MIC TI 72h
  MIC: 62.5 µM (≈ 17.6 µg/mL)
[21]; 120 h, read-out: MIC TI 120h
  MIC: 125 µM (≈ 35.1 µg/mL)
[22]; [28]
  MIC: > 500 µM
[22]; [29]
  MIC: > 500 µM
[23]
  MIC KP 24h: > 500 µmol/L
  MIC KP 48h: > 500 µmol/L

## O=C(Cc1ccc(F)cc1)Nc1cccc(Cl)n1 [Compound 33]
[2]; Calculated from MIC (μg/mL)
  MIC: 59 µM
[2]
  MIC: 15.6 µg/mL
  SI (selectivity index): 3.6
[3]
  MIC: 500 µg/mL (≈ 1890 µM)
[4]
  MIC: 250 µg/mL (≈ 945 µM)
HepG2 cell line
  IC50: 213 µM
[8]; 24 h, read-out: MIC SA 24h
  MIC: > 500 µM
[8]; 48 h, read-out: MIC SA 48h
  MIC: > 500 µM
[9]; 24 h, read-out: MIC MRSA 24h
  MIC: > 500 µM
[9]; 48 h, read-out: MIC MRSA 48h
  MIC: > 500 µM
[10]; 24 h, read-out: MIC SE 24h
  MIC: > 500 µM
[10]; 48 h, read-out: MIC SE 48h
  MIC: > 500 µM
[11]; 24 h, read-out: MIC EF 24h
  MIC: > 500 µM
[11]; 48 h, read-out: MIC EF 48h
  MIC: > 500 µM
[12]; 24 h, read-out: MIC EC 24h
  MIC: > 500 µM
[12]; 48 h, read-out: MIC EC 48h
  MIC: > 500 µM
[13]; 24 h, read-out: MIC ACI 24h
  MIC: > 500 µM
[13]; 48 h, read-out: MIC ACI 48h
  MIC: > 500 µM
[14]; 24 h, read-out: MIC PA 24h
  MIC: > 500 µM
[14]; 48 h, read-out: MIC PA 48h
  MIC: > 500 µM
[15]; 24 h, read-out: MIC CA 24h
  MIC: > 500 µM
[15]; 48 h, read-out: MIC CA 48h
  MIC: > 500 µM
[16]; 24 h, read-out: MIC CK 24h
  MIC: 31.2 µM (≈ 8.27 µg/mL)
[16]; 48 h, read-out: MIC CK 48h
  MIC: 62.5 µM (≈ 16.5 µg/mL)
[17]; 24 h, read-out: MIC CP 24h
  MIC: > 500 µM
[17]; 48 h, read-out: MIC CP 48h
  MIC: > 500 µM
[18]; 24 h, read-out: MIC CT 24h
  MIC: > 500 µM
[18]; 48 h, read-out: MIC CT 48h
  MIC: > 500 µM
[19]; [24]
  MIC: > 500 µM
[19]; [25]
  MIC: > 500 µM
[20]; [26]
  MIC: > 500 µM
[20]; [27]
  MIC: > 500 µM
[21]; 72 h, read-out: MIC TI 72h
  MIC: > 500 µM
[21]; 120 h, read-out: MIC TI 120h
  MIC: > 500 µM
[22]; [28]
  MIC: > 500 µM
[22]; [29]
  MIC: > 500 µM
[23]
  MIC KP 24h: > 500 µmol/L
  MIC KP 48h: > 500 µmol/L

## NNC(=O)c1ccncc1 [INH, isoniazid, reference compound]
[2]; Calculated from MIC (μg/mL)
  MIC: 0.9 to 1.8 µM
[2]
  MIC: 0.125 to 0.25 µg/mL
[3]
  MIC: 7.81 to 15.6 µg/mL (≈ 56.9 to 114 µM)
[4]
  MIC: 3.91 to 7.81 µg/mL (≈ 28.5 to 56.9 µM)
[5]
  MIC Mtb H37Rv: 0.1 to 0.2 µg/mL
[6]
  MIC M. kansasii: 3.13 to 12.5 µg/mL
[7]
  MIC M. avium: 6.25 to 12.5 µg/mL
